Patent US11590116B2 (THERAVANCE BIOPHARMA R&D IP, LLC, priority 2019, dated 2023)

Legend:
[1] = target: T1, recombinant human ALK5 (TGF-βR1) protein (Homo sapiens, UniProt P36897); assay: Biochemical ALK5 (TGF-βR1) assay to measure pKi (LANCE Ultra ULight kinase assay); conditions: apparent pKi from pIC50 by Cheng-Prusoff, read-out: ALK5 pKi (converted)
T1 construct: purchased Life Technologies PR9075A
T1 sequence (P36897 34-503): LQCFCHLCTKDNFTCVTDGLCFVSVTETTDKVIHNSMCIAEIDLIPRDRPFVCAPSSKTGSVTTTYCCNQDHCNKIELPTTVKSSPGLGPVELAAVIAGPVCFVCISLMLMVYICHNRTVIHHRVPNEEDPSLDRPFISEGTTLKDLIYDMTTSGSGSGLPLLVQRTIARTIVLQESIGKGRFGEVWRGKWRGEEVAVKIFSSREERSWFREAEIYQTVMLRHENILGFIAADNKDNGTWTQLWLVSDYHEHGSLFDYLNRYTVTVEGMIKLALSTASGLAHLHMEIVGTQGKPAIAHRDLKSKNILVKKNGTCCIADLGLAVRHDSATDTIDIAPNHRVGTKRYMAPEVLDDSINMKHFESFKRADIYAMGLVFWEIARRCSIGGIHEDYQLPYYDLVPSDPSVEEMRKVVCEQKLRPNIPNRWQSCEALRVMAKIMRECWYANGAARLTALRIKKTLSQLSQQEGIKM
Method in brief: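 Dose range 10 μM–25 pM; enzyme + compound 60 min RT; ATP added (5× stock 125 μM, 2 mM DTT); 60 min 37 °C; stop with EDTA + Eu anti-phospho-Topo IIα Thr1342 Ab; TR-FRET ex 320/340, em 665 nm. 4-param pIC50 → pKi (Cheng-Prusoff).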

[2] = tested on: TGF-β-stimulated SMAD3 phosphorylation in BEAS-2B cells; assay: Cellular ALK5 potency assay, inhibition of TGF-β stimulated pSMAD3 formation in BEAS-2B cells; assay type: cell-based; conditions: Homo sapiens; inhibition of TGF-β stimulated pSMAD3 formation, BEAS-2B cells; read-out: BEAS2B pIC50 (converted)
Method in brief: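 pSMAD3 was quantified by AlphaLISA in BEAS-2B lysates after 10 ng/mL TGF-β (final) for 30 min. Before stimulation, cells received compound for 1 h at 37° C in supplemented HBSS. Values are pIC50, relative to TGF-β-stimulated cells without compound.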

| Structure (SMILES) | Ki [1] | IC50 [2] |
| --- | --- | --- |
| Cc1cccc(-c2nc3ccccn3c2-c2ccc3ncc(N4CCC(N(C)C)C4)cc3n2)n1 (racemic) [Compound 285, rac-(3S)-N,N-dimethyl-1-[6-[2-(6-methyl-2-pyridyl)imidazo[1,2-a]pyridin-3-yl]-1,5-naphthyridin-3-yl]pyrrolidin-3-amine] | 0.0398 to 0.316 nM | 25.1 to 158 nM |
| Cc1cccc(-c2n[nH]cc2-c2ccc3ncc(N4CC5CN(C(C)C)CC54)cc3n2)n1 (centres unmarked) [Compound 186, 7-(3-isopropyl-3,6-diazabicyclo[3.2.0]heptan-6-yl)-2-[3-(6-methyl-2-pyridyl)-1H-pyrazol-4-yl]-1,5-naphthyridine] | 0.398 to 3.16 nM | 25.1 to 158 nM |
| Cc1cccc(-c2[nH]cnc2-c2ccc3ncc(C4=CCNC4)cc3c2)n1 [Compound 429, 3-(2,5-dihydro-1H-pyrrol-3-yl)-6-[5-(6-methyl-2-pyridyl)-1H-imidazol-4-yl]quinoline] | 0.0398 to 0.316 nM | < 20 nM |
| Cc1cccc(-c2n[nH]cc2-c2ccc3ncc(N4CCNCC4)cc3n2)n1 [Compound 73, 2-[3-(6-methyl-2-pyridyl)-1H-pyrazol-4-yl]-7-piperazin-1-yl-1,5-naphthyridine] | < 0.0316 nM | < 20 nM |
| Cc1cccc(-c2nc[nH]c2-c2ccc3ncc(-c4cnn([C@@H]5CCCC[C@H]5N)c4)cc3c2)n1 [Compound 448, (1R,2R)-2-[4-[6-[4-(6-methyl-2-pyridyl)-1H-imidazol-5-yl]-3-quinolyl]pyrazol-1-yl]cyclohexanamine] | < 0.0316 nM | 25.1 to 158 nM |
| Cc1cccc(-c2[nH]cnc2-c2ccc3ncc(-c4cccc(C(=O)OC5CNC5)c4)cc3c2)n1 [Compound 197, azetidin-3-yl 3-[6-[5-(6-methyl-2-pyridyl)-1H-imidazol-4-yl]-3-quinolyl]benzoate] | 0.0398 to 0.316 nM | 25.1 to 158 nM |
| Cc1cccc(-c2n[nH]cc2-c2ccc3ncc(-c4cnc(O)nc4)cc3n2)n1 [Compound 69, 5-[6-[3-(6-methyl-2-pyridyl)-1H-pyrazol-4-yl]-1,5-naphthyridin-3-yl]pyrimidin-2-ol] | 0.0398 to 0.316 nM | 1580 to 10000 nM |
| Cc1cccc(-c2n[nH]cc2-c2ccc3ncc(C(=O)NCCCN4CCN(C(C)C)CC4)cc3n2)n1 [Compound 55, N-[3-(4-isopropylpiperazin-1-yl)propyl]-6-[3-(6-methyl-2-pyridyl)-1H-pyrazol-4-yl]-1,5-naphthyridine-3-carboxamide] | 0.0398 to 0.316 nM | 200 to 1260 nM |
| CNCCn1ccc(-c2cnc3ccc(-c4c[nH]nc4-c4ccc(F)c(C)n4)nc3c2)n1 [Compound 108, 2-[3-[6-[3-(5-fluoro-6-methyl-2-pyridyl)-1H-pyrazol-4-yl]-1,5-naphthyridin-3-yl]pyrazol-1-yl]-N-methyl-ethanamine] | 0.0398 to 0.316 nM | 25.1 to 158 nM |
| Cc1cccc(-c2n[nH]cc2-c2ccc3ncc(-c4nc5n(n4)CCNC5)cc3c2)n1 [Compound 315, 6-[3-(6-methyl-2-pyridyl)-1H-pyrazol-4-yl]-3-(5,6,7,8-tetrahydro-[1,2,4]triazolo[1,5-a]pyrazin-2-yl)quinoline] | 0.0398 to 0.316 nM | 25.1 to 158 nM |
| Cc1cccc(-c2n[nH]cc2-c2ccc3ncc(N4CCC(N)CC4)cc3n2)n1 [Compound 316, 1-[6-[3-(6-methyl-2-pyridyl)-1H-pyrazol-4-yl]-1,5-naphthyridin-3-yl]piperidin-4-amine] | < 0.0316 nM | 25.1 to 158 nM |
| Cc1cccc(-c2n[nH]cc2-c2ccc3ncc(OCCN4CCN(C(C)C)CC4)cc3n2)n1 [Compound 241, 7-[2-(4-isopropylpiperazin-1-yl)ethoxy]-2-[3-(6-methyl-2-pyridyl)-1H-pyrazol-4-yl]-1,5-naphthyridine] | 0.0398 to 0.316 nM | 200 to 1260 nM |
| Cc1nc(-c2[nH]cnc2-c2ccc3ncc(-c4cnn(C5CCCNC5)c4)cc3n2)ccc1F (centres unmarked) [Compound 413, 2-[5-(5-fluoro-6-methyl-2-pyridyl)-1H-imidazol-4-yl]-7-[1-(3-piperidyl)pyrazol-4-yl]-1,5-naphthyridine] | 0.0398 to 0.316 nM | 25.1 to 158 nM |
| Cc1cccc(-c2[nH]cnc2-c2ccc3ncc(C4=CC[C@@H](N)CC4)cc3c2)n1 [Compound 171, (1S)-4-[6-[5-(6-methyl-2-pyridyl)-1H-imidazol-4-yl]-3-quinolyl]cyclohex-3-en-1-amine] | < 0.0316 nM | < 20 nM |
| Cc1cccc(-c2[nH]cnc2-c2ccc3ncc(NC4CCNC4)cc3c2)n1 (centres unmarked) [Compound 184, 6-[5-(6-methyl-2-pyridyl)-1H-imidazol-4-yl]-N-pyrrolidin-3-yl-quinolin-3-amine] | 0.0398 to 0.316 nM | 25.1 to 158 nM |

The next lines start with results.

| Ki [1] | Structure (SMILES) | IC50 [2] |
| --- | --- | --- |
| < 0.0316 nM | Cc1cccc(-c2n[nH]cc2-c2ccc3ncc(NCCN4CCN(C(C)C)CC4)cc3n2)n1 [Compound 478, N-[2-(4-isopropylpiperazin-1-yl)ethyl]-6-[3-(6-methyl-2-pyridyl)-1H-pyrazol-4-yl]-1,5-naphthyridin-3-amine] | 25.1 to 158 nM |
| 0.0398 to 0.316 nM | Cc1cccc(-c2[nH]cnc2-c2ccc3ncc(-c4cncc(C(=O)O[C@H]5CCN(C)C5)c4)cc3c2)n1 [Compound 704, [(3S)-1-methylpyrrolidin-3-yl] 5-[6-[5-(6-methyl-2-pyridyl)-1H-imidazol-4-yl]-3-quinolyl]pyridine-3-carboxylate] | 25.1 to 158 nM |
| 0.398 to 3.16 nM | CNCCn1cc(-c2cnc3ccc(-c4c(-c5cccc(C)n5)nnn4CC(=O)O)nc3c2)cn1 [Compound 630, 2-[5-[7-[1-[2-(methylamino)ethyl]pyrazol-4-yl]-1,5-naphthyridin-2-yl]-4-(6-methyl-2-pyridyl)triazol-1-yl]acetic acid] | 1580 to 10000 nM |
| 0.0398 to 0.316 nM | Cc1cccc(-c2[nH]ncc2-c2ccc3nccc(C(=O)OC[C@@H]4CCCN4)c3c2)n1 [Compound 1233, [(2S)-pyrrolidin-2-yl]methyl 6-[5-(6-methyl-2-pyridyl)-1H-pyrazol-4-yl]quinoline-4-carboxylate] | 25.1 to 158 nM |
| 0.0398 to 0.316 nM | Cc1cccc(-c2[nH]cnc2-c2ccc3ncc(-c4ccc(C(=O)OC[C@@H]5CCCCN5)cn4)cc3c2)n1 [Compound 1165, [(2S)-2-piperidyl]methyl 6-[6-[5-(6-methyl-2-pyridyl)-1H-imidazol-4-yl]-3-quinolyl]pyridine-3-carboxylate] | 25.1 to 158 nM |
| 0.0398 to 0.316 nM | Cc1cccc(-c2nnn(Cc3ccccc3)c2-c2ccc3ncc(N4CCC(N5CCN(C)CC5)CC4)cc3n2)n1 [Compound 475, 2-[3-benzyl-5-(6-methyl-2-pyridyl)triazol-4-yl]-7-[4-(4-methylpiperazin-1-yl)-1-piperidyl]-1,5-naphthyridine] | 200 to 1260 nM |
| < 0.0316 nM | Cc1nc(-c2[nH]cnc2-c2ccc3ncc(-c4cn[nH]c4)cc3n2)ccc1F [Compound 536, 2-[5-(5-fluoro-6-methyl-2-pyridyl)-1H-imidazol-4-yl]-7-(1H-pyrazol-4-yl)-1,5-naphthyridine] | < 20 nM |
| < 0.0316 nM | CNCCn1cc(-c2cnc3ccc(-c4c[nH]nc4-c4ccc(F)c(C)n4)cc3c2)cn1 [Compound 634, 2-[4-[6-[3-(5-fluoro-6-methyl-2-pyridyl)-1H-pyrazol-4-yl]-3-quinolyl]pyrazol-1-yl]-N-methyl-ethanamine] | < 20 nM |
| 0.0398 to 0.316 nM | Cc1cccc(-c2[nH]ncc2-c2ccc3ncc(-c4nnco4)cc3n2)n1 [Compound 677, 2-[6-[5-(6-methyl-2-pyridyl)-1H-pyrazol-4-yl]-1,5-naphthyridin-3-yl]-1,3,4-oxadiazole] | 25.1 to 158 nM |
| 0.398 to 3.16 nM | Cc1cccc(-c2[nH]cnc2-c2ccc3ncc(C(=O)O[C@H]4CC[C@@H](N)CC4)cc3c2)n1 [Compound 1066, (4-aminocyclohexyl) 6-[5-(6-methyl-2-pyridyl)-1H-imidazol-4-yl]quinoline-3-carboxylate] | 200 to 1260 nM |
| < 0.0316 nM | Cc1cccc(-c2n[nH]cc2-c2ccc3ncc(-c4cc5n(n4)CCN5)cc3n2)n1 [Compound 564, 7-(2,3-dihydro-1H-imidazo[1,2-b]pyrazol-6-yl)-2-[3-(6-methyl-2-pyridyl)-1H-pyrazol-4-yl]-1,5-naphthyridine] | < 20 nM |
| 0.398 to 3.16 nM | Cc1cccc(-c2[nH]cnc2-c2ccc3ncc(-c4cncc(C(=O)O)c4)cc3c2)n1 [Compound 795, 5-[6-[5-(6-methyl-2-pyridyl)-1H-imidazol-4-yl]-3-quinolyl]pyridine-3-carboxylic acid] | 1580 to 10000 nM |
| 0.0398 to 0.316 nM | Cc1cccc(-c2[nH]cnc2-c2ccc3ncc(-c4csc(C(=O)OC5CNC5)n4)cc3c2)n1 [Compound 1046, azetidin-3-yl 4-[6-[5-(6-methyl-2-pyridyl)-1H-imidazol-4-yl]-3-quinolyl]thiazole-2-carboxylate] | 25.1 to 158 nM |
